In patent US5336686A, “17 Methylene lactones of steroids” (Roussel-Uclaf, priority 1992, dated 1994):

How the values were obtained:
[1] = biological target: T1, Progestogen Receptor of Rabbit's Uterus (Oryctolagus cuniculus, UniProt P06186); experiment: Progestogen receptor of rabbit's uterus, relative bond affinity (RBA); type: binding; conditions: vs tritiated Product R; for relative bond affinity (RBA), Progestogen, 2 H: incubation 2 H at 0° C.; for relative bond affinity (RBA), Progestogen, 24 H: incubation 24 H at 0° C.
T1 construct: The uteri were removed, weighed and homogenized at 0° C; from tissue; host or cells: uterus of estradiol-treated impubic rabbits, 105,000 g supernatant (cytosol)
T1 sequence (P06186 1-930): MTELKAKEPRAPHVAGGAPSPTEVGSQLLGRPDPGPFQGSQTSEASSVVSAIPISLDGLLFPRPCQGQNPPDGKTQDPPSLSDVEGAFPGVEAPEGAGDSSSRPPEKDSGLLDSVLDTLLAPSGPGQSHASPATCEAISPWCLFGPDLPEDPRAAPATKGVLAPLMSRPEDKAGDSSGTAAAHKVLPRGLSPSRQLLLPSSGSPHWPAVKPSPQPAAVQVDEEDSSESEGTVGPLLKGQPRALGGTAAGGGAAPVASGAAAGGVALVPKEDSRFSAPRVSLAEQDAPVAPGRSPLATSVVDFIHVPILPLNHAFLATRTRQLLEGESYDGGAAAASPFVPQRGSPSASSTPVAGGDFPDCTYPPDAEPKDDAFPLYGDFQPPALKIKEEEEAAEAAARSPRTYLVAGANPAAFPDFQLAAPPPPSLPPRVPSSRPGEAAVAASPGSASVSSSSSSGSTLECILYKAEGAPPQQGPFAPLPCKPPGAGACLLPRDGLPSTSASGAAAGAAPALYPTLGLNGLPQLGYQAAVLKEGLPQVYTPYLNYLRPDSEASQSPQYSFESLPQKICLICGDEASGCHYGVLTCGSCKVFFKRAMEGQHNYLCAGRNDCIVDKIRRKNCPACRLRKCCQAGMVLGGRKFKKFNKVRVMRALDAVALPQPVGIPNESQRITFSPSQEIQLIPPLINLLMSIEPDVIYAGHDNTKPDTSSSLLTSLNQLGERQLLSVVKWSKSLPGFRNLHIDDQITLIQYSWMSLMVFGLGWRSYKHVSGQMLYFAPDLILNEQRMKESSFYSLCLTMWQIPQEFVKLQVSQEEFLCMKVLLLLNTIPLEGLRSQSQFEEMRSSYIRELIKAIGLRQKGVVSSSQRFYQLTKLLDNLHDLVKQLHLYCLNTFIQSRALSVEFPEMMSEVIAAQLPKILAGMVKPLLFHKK
Description: Impubic rabbits weighing about 1 kg received a cutaneous application of […] of estradiol and 5 days after this treatment, the animals were killed. The uteri were removed, weighed and homogenized at 0° C., using a Potter teflon flask in a buffered TS solution (10 mM Tris, 0.25 M saccharose, HCl pH 7.4) (1 g of tissue per 50 ml of TS). The homogenate was then ultracentrifuged (105,000 g×90 min) at 0° C. The aliquots of the supernatant were incubated at 0° C. for a time t, with a constant concentration (T) of tritiated Product R (17,21-dimethyl-19-nor-Δ^4,9 -pregnadiene-3,20-dione) in the presence of increasing concentrations (0-2,500×10^-9 M) either of cold R, or of cold progesterone, or of cold product to be tested. The concentration of bound tritiated R (B) was then measured in each incubate by the technique of adsorption with carbon dextran.
(§1) The calculation of the relative bond affinity (RBA) was identical for both receptors.
(§2) The following 2 curves were drawn: the percentage of bound tritiated hormone B/T as a function of the logarithm of the concentration of the cold reference hormone and B/T as a function of the logarithm of the concentration of the cold tested product. The straight line of the equation [formula] was determined. B/T max=Percentage of bound tritiated hormone for an incubation of this tritiated hormone at the concentration (T).
(§3) B/T min=Percentage of the bound tritiated hormone for an incubation of this tritiated hormone at the concentration (T) in the presence of a large excess of cold hormone (2,500×10^-9 M).
(§4) The intersections of the straight line I50 and the curves enabled the concentrations of cold reference hormone (CH) and cold tested product (CX) which inhibited the bonding of the tritiated hormone on the receptor by 50% to be evaluated.
(§5) The relative bond affinity (RBA) of the tested product was determined by the equation: [formula]

[2] = biological target: T2, Glucocorticoid Receptor of Rat's Thymus (Rattus norvegicus, UniProt P06536); experiment: Glucocorticoid receptor of rat's thymus, relative bond affinity (RBA); type: binding; conditions: vs tritiated dexamethasone; for relative bond affinity (RBA), Glucocorticoid, 4 H: incubation 4 H at 0° C.; for relative bond affinity (RBA), Glucocorticoid, 24 H: incubation 24 H at 0° C.
T2 construct: The thymuses were removed and homogenized at 0° C; from tissue; host or cells: thymus of adrenalectomized male Sprague-Dawley rats, 105,000 g supernatant (cytosol)
T2 sequence (P06536 1-795): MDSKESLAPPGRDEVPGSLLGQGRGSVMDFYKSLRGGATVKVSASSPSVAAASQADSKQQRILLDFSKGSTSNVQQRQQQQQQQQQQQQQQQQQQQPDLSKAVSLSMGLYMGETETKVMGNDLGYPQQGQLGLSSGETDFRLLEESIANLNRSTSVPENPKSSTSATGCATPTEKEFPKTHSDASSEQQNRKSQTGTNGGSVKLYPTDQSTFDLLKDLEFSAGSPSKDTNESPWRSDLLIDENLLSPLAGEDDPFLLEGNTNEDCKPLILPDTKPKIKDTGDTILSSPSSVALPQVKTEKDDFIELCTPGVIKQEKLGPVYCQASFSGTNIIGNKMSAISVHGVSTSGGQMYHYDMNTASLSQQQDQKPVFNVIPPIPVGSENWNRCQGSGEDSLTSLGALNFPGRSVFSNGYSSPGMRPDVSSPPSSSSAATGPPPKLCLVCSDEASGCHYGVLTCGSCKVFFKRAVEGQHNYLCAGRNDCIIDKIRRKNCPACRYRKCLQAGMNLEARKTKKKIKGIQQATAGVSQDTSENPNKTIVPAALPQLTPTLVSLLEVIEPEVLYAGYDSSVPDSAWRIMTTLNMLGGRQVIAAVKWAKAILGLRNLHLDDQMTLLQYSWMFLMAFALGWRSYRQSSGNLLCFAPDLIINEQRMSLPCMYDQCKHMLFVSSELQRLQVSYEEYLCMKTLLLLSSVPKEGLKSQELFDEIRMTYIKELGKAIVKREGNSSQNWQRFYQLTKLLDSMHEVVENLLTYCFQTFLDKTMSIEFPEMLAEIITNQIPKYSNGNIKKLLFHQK
Description: Male Sprague-Dawley EOPS rats weighing 160 to 200 g were suprarenalectomized and 4 to 8 days after this removal, the animals were killed. The thymuses were removed and homogenized at 0° C. in a 10 mM Tris, 0.15M saccharose, 2 mM dithiothreitol, HCl pH 7.4 buffer using a Potter polytetra-fluoroethylene flask (1 g of tissue per 10 ml of TS). The homogenate was ultracentrifuged (105,000 g×90 min) at 0° C. and the aliquots of the supernatant were incubated at 0° C. for a time (t) with a constant concentration (T) of tritiated dexamethasone in the presence of increasing concentrations (0-2,500×10^-9 M)either of cold dexamethasone, or the cold product to be tested. The concentration of the bound tritiated dexamethasone (B) was measured in each incubate by the technique of adsorption with carbon dextran.
as §1, §2, §3, §4, §5

[3] = system: Thymocytes of suprarenalectomized rats; experiment: Antiglucocorticoid activity: tritiated uridine incorporation in thymocytes with dexamethasone; type: cell-based, rat; conditions: for inhibition at 1 µM / inhibition at 0.1 µM / inhibition at 0.01 µM: Rattus norvegicus, Thymocyte, 5.10^-8 M dexamethasone, 37° C., 3 hours, read-out: % inhibition of the effect of the Dexamethasone; for inhibition at 1 µM: product at 10^-6 M; for inhibition at 0.1 µM: product at 10^-7 M; for inhibition at 0.01 µM: product at 10^-8 M
Description: The technique used was derived from the method of Dausse et al, Molecular Pharmacology, Vol. 13, p. 948-955 (1977) ("the relationship between glucocorticoid structure and effects upon Thymocytes"), for the thymocytes of mice. Thymocytes of suprarenalectomized rats were incubated at 37° C. for 3 hours in a nutritive medium containing 5.10^-8 M of dexamethasone in the presence or not of a product to be studied at different concentrations. Tritiated uridine was added, and the incubation was continued for one hour. The incubates were cooled, treated with a 5% solution of trichloroacetic acid, filtered on Whatman GF/A paper and washed three times using a solution of 5% trichloroacetic acid. The radioactivity retained by the filter paper was determined.

Structure (SMILES): C=C1C[C@@]2(CC[C@H]3[C@@H]4CCC5=CC(=O)CCC5=C4[C@@H](c4ccc(N(C)C)cc4)C[C@@]32C)OC1=O [Example 1, γ-lactone of 11β-[4-(dimethylamino)phenyl] 21-methylene 19-nor 17α-Δ^4,9-pregnadiene-17β-ol-3-one-21-carboxylic acid]
- relative bond affinity (RBA), Progestogen, 2 H [1]: 32
- relative bond affinity (RBA), Progestogen, 24 H [1]: 21
- relative bond affinity (RBA), Glucocorticoid, 4 H [2]: 135
- relative bond affinity (RBA), Glucocorticoid, 24 H [2]: 94
- inhibition at 1 µM [3]: 116%
- inhibition at 0.1 µM [3]: 104%
- inhibition at 0.01 µM [3]: 71%

Structure (SMILES): C=C1C[C@]2(CC[C@H]3[C@@H]4CCC5=CC(=O)CCC5=C4[C@@H](c4ccc(N(C)C)cc4)C[C@@]32C)OC1=O [Example 2, γ-Lactone of 11β-[4-(dimethylamino)phenyl]21methylene-19-nor 17β-Δ^4,9-pregnadiene-17α-ol-3-one-21-carboxylic acid]
- relative bond affinity (RBA), Progestogen, 2 H [1]: 86
- relative bond affinity (RBA), Progestogen, 24 H [1]: 36
- relative bond affinity (RBA), Glucocorticoid, 4 H [2]: 136
- relative bond affinity (RBA), Glucocorticoid, 24 H [2]: 59

Structure (SMILES): C=C1C[C@@]2(CC[C@H]3[C@@H]4CCC5=CC(=O)CCC5=C4[C@@H](c4ccc(SC)cc4)C[C@@]32C)OC1=O [Example 3, γ-lactone of 11β-[4-(methylthio)phenyl]21-methylene 19-nor-17α-Δ^4,9-pregnadiene-17β-ol-3-one-21-carboxylic acid]
- inhibition at 1 µM [3]: 133%
- inhibition at 0.1 µM [3]: 69%
- inhibition at 0.01 µM [3]: 24%

Structure (SMILES): C[C@@H]1C[C@H]2[C@@H]3CCC4=CC(=O)C=C[C@]4(C)[C@@]3(F)[C@@H](O)C[C@]2(C)[C@@]1(O)C(=O)CO [dexamethasone, reference compound]
- incorporation of tritiated uridine ([3]; effect of dexamethasone itself, in words): decrease
